From patent US20240016783A1 (Icahn School of Medicine at Mount Sinai, priority 2020, published 2024)

Columns and labels:
[1] = tested on: mouse model of AD (SXFAD); conditions: early-onset aggressive mouse model of AD (SXFAD); cited from earlier work
rodents = conditions: through clustering of dendritic spines; cited from earlier work
[2] = tested on: Alzheimer's disease patients; conditions: in vivo
rodent models = conditions: cited from earlier work

In the case of `Nc1nc2ccc(OC(F)(F)F)cc2s1` [Riluzole, 2-Amino-6-(trifluoromethoxy)benzothiazole], the “Gene expression changes in immune pathways” value [1] is listed as “reversed many of the gene expression changes in immune pathways”, the “Hippocampal-dependent spatial memory decline” value [1] is listed as “prevented hippocampal-dependent spatial memory decline” and the Age-related cognitive decline (rodents) is listed as “can prevent age-related cognitive decline”. The Abdominal discomfort ([2]; human, 6 months) was 15.4%, the “Adverse event that led to removal from the trial” value ([2]; human, 6 months) was 15.4% and the Cough ([2]; human, 6 months) was 19.23%. The Diarrhea ([2]; human, 6 months) was 15.4%, the Dizziness ([2]; human, 6 months) was 15.4% and the Elevated liver enzymes ([2]; human, 6 months) was 7.7%. For the same compound, the Nausea ([2]; human, 6 months) was 7.7%, the “Patients having at least one adverse event during the study” value ([2]; human, 6 months) was 88.5% and the Serious adverse events ([2]; human, 6 months) was 7.7%. The Urinary frequency ([2]; human, 6 months) was 11.5%, the “Difference in adverse events between treatment groups” value [2] was “no statistical differences” and the “Gene expression profiles related to aging and AD” value (rodent models) was “rescues gene expression profiles related to aging and AD”.
